Source: patent US20260272907A1, “Therapeutic Tyrosine Kinase Inhibitors for Multiple Sclerosis” (Principia Biopharma Inc., priority 2022, published 2026)

Tested on: patients with relapsing multiple sclerosis
Assay: Phase 2b dose-finding study: adverse events (TEAEs, SAEs, AESIs), safety population
Details: for Proportion of participants with TEAEs: BTK inhibitor treatment period (12 weeks); for Adverse event: Accidental overdose / Adverse event: Alanine aminotransferase increased / Adverse event: Alopecia / Adverse event: Back pain / Adverse event: Gastroenteritis / Adverse event: Headache / Adverse event: Muscle spasticity / Adverse event: Nasopharyngitis / Adverse event: Oropharyngeal pain / Adverse event: Peripheral edema / Adverse event: Respiratory tract infection / Adverse event: Upper respiratory tract infection: 12 weeks treatment
[1] = 15 mg, 12-week treatment period
[2] = 30 mg, 12-week treatment period
[3] = 60 mg, 12-week treatment period
[4] = All (N = 130), BTK inhibitor treatment period, safety population
[5] = All Dose Groups (N = 130), Weeks 1 to 12
[6] = BTK inhibitor 5 (N = 16), Weeks 1 to 4
[7] = BTK inhibitor 5 (N = 33), BTK inhibitor treatment period, safety population
[8] = BTK inhibitor 15 (N = 16), Weeks 1 to 4
[9] = BTK inhibitor 15 (N = 32), BTK inhibitor treatment period, safety population
[10] = BTK inhibitor 30 (N = 16), Weeks 1 to 4
[11] = BTK inhibitor 30 (N = 33), BTK inhibitor treatment period, safety population
[12] = BTK inhibitor 60 (N = 16), Weeks 1 to 4
[13] = BTK inhibitor 60 (N = 32), BTK inhibitor treatment period, safety population
[14] = BTKi 5 mg (N = 16), Weeks 1 to 4
[15] = BTKi 5 mg (n = 33), Weeks 1 to 12

C=CC(=O)N1CCC[C@@H](n2c(=O)n(-c3ccc(Oc4ccccc4)cc3)c3c(N)nccc32)C1 [the BTK inhibitor, (R)-1-(1-acryloylpiperidin-3-yl)-4-amino-3-(4-phenoxyphenyl)-1H-imidazo[4,5-c]pyridin-2(3H)-one]
Alanine aminotransferase increased (TEAE) (5 mg, 12-week treatment period): 1
Alopecia (TEAE) (5 mg, 12-week treatment period): 1
Back pain (TEAE) (5 mg, 12-week treatment period): 1
Gastroenteritis (TEAE) (5 mg, 12-week treatment period): 1
Headache (TEAE) (5 mg, 12-week treatment period): 1
Nasopharyngitis (TEAE) (5 mg, 12-week treatment period): 1
Oedema peripheral (TEAE) (5 mg, 12-week treatment period): 2
Oropharyngeal pain (TEAE) (5 mg, 12-week treatment period): 1
Upper respiratory tract infection (TEAE) (5 mg, 12-week treatment period): 2
Proportion of participants with TEAEs (5 mg): 57.6%
Headache (TEAE) (5 mg, Weeks 1 to 4): 3 cases
Nausea (TEAE) (5 mg, Weeks 1 to 4): 2 cases
Proportion of participants who experienced TEAEs (5 mg, Weeks 1 to 4): 31.3%
Alopecia (TEAE) [1]: 1
Back pain (TEAE) [1]: 1
Headache (TEAE) [1]: 3
Respiratory tract infection (TEAE) [1]: 1
Upper respiratory tract infection (TEAE) [1]: 2
Proportion of participants with TEAEs (15 mg): 53.1%
Headache (TEAE) (15 mg, Weeks 1 to 4): 2 cases
Proportion of participants who experienced TEAEs (15 mg, Weeks 1 to 4): 18.8%
AESIs (alanine aminotransferase increased >3×ULN) (30 mg treatment period): 1
Alanine aminotransferase increased (TEAE) [2]: 1
Back pain (TEAE) [2]: 2
Headache (TEAE) [2]: 1
Muscle spasticity (TEAE) [2]: 1
Nasopharyngitis (TEAE) [2]: 1
Oropharyngeal pain (TEAE) [2]: 1
Respiratory tract infection (TEAE) [2]: 1
Upper respiratory tract infection (TEAE) [2]: 1
Proportion of participants with TEAEs (30 mg): 54.5%
Nausea (TEAE) (30 mg, Weeks 1 to 4): 1 cases
Proportion of participants who experienced TEAEs (30 mg, Weeks 1 to 4): 12.5%
Severe TEAEs (60 mg group, all other TEAEs mild or moderate): one
AESIs (alanine aminotransferase increased >3×ULN) (60 mg treatment period): 1
Treatment-emergent SAEs (MS relapse) (60 mg, Cohort 1, about 8 weeks after starting treatment): One
Accidental overdose (TEAE) [3]: 3
Alanine aminotransferase increased (TEAE) [3]: 1
Alopecia (TEAE) [3]: 1
Gastroenteritis (TEAE) [3]: 2
Headache (TEAE) [3]: 4
Muscle spasticity (TEAE) [3]: 2
Nasopharyngitis (TEAE) [3]: 3
Oedema peripheral (TEAE) [3]: 2
Oropharyngeal pain (TEAE) [3]: 1
Respiratory tract infection (TEAE) [3]: 1
Upper respiratory tract infection (TEAE) [3]: 1
Proportion of participants with TEAEs (60 mg): 50.0%
Headache (TEAE) (60 mg, Weeks 1 to 4): 1 cases
Proportion of participants who experienced TEAEs (60 mg, Weeks 1 to 4): 31.3%
Correlation between dose administered and number of TEAEs (5-60 mg): no direct correlation
Tolerability (5-60 mg once daily, over the 12 weeks of treatment): well-tolerated
AESI: Alanice aminotransferase increased [4]: 2 (1.5) n (%)
AESI: Investigations [4]: 2 (1.5) n (%)
Any AESI [4]: 2 (1.5) n (%)
Participants with any TEAE [4]: 69 (53.1) n (%)
Participants with any TEAE leading to death [4]: 0 n (%)
Participants with any TEAE leading to study treatment discontinuation [4]: 0 n (%)
Participants with any severe TEAE [4]: 1 (0.8) n (%)
Participants with any treatment emergent SAE [4]: 1 (0.8) n (%)
Participants with any treatment-related TEAE [4]: 15 (11.5) n (%)
Participants with study discontinuation due to any TEAE [4]: 0 n (%)
Participants with treatment emergent SAE(s): Any class [4]: 1 (0.8) n(%)
Participants with treatment emergent SAE(s): Multiple sclerosis relapse [4]: 1 (0.8) n(%)
Participants with treatment emergent SAE(s): NERVOUS SYSTEM DISORDERS [4]: 1 (0.8) n(%)
Participants with any TEAE leading to death (All (N = 130), Weeks 1 to 4): 0 n (%)
Participants with any TEAE leading to study treatment discontinuation (All (N = 130), Weeks 1 to 4): 0 n (%)
Participants with any severe TEAE (All (N = 130), Weeks 1 to 4): 0 n (%)
Participants with any treatment emergent SAE (All (N = 130), Weeks 1 to 4): 0 n (%)
Participants with study discontinuation due to any TEAE (All (N = 130), Weeks 1 to 4): 0 n (%)
Adverse event: Accidental overdose (All Dose Groups (N = 130)): 3 (2%)
Adverse event: Alanine aminotransferase increased (All Dose Groups (N = 130)): 3 (2%)
Adverse event: Alopecia (All Dose Groups (N = 130)): 3 (2%)
Adverse event: Back pain (All Dose Groups (N = 130)): 4 (3%)
Adverse event: Gastroenteritis (All Dose Groups (N = 130)): 3 (2%)
Adverse event: Headache (All Dose Groups (N = 130)): 9 (7%)
Adverse event: Muscle spasticity (All Dose Groups (N = 130)): 3 (2%)
Adverse event: Nasopharyngitis (All Dose Groups (N = 130)): 5 (4%)
Adverse event: Oropharyngeal pain (All Dose Groups (N = 130)): 3 (2%)
Adverse event: Peripheral edema (All Dose Groups (N = 130)): 4 (3%)
Adverse event: Respiratory tract infection (All Dose Groups (N = 130)): 3 (2%)
Adverse event: Upper respiratory tract infection (All Dose Groups (N = 130)): 6 (5%)
AE leading to death [5]: 0 n (%)
AE leading to study discontinuation [5]: 0 n (%)
Any AE (4 weeks vs. placebo 12 weeks) [5]: 70 (53.8) n (%)
Any AE leading to study treatment discontinuation [5]: 0 n (%)
Any treatment-related AE [5]: 17 (13.1) n (%)
Serious AE [5]: 1 (0.8) n (%)
AESI: Alanice aminotransferase increased [6]: 0 n (%)
AESI: Investigations [6]: 0 n (%)
Any AESI [6]: 0 n (%)
AESI: Investigations [7]: 0 n (%)
Any AESI [7]: 0 n (%)
AESI: Alanice aminotransferase increased (BTK inhibitor 5, BTK inhibitor treatment period, safety population): 0 n (%)
AESI: Alanice aminotransferase increased [8]: 0 n (%)
AESI: Investigations [8]: 0 n (%)
Any AESI [8]: 0 n (%)
AESI: Alanice aminotransferase increased [9]: 0 n (%)
AESI: Investigations [9]: 0 n (%)
Any AESI [9]: 0 n (%)
AESI: Alanice aminotransferase increased [10]: 0 n (%)
AESI: Investigations [10]: 0 n (%)
Any AESI [10]: 0 n (%)
AESI: Alanice aminotransferase increased [11]: 1 (3.0) n (%)
AESI: Investigations [11]: 1 (3.0) n (%)
Any AESI [11]: 1 (3.0) n (%)
AESI: Alanice aminotransferase increased [12]: 0 n (%)
AESI: Investigations [12]: 0 n (%)
Any AESI [12]: 0 n (%)
AESI: Alanice aminotransferase increased [13]: 1 (3.1) n (%)
AESI: Investigations [13]: 1 (3.1) n (%)
Any AESI [13]: 1 (3.1) n (%)
Participants with any TEAE (BTK inhibitor treatment period, safety population): 18 (54.5) n (%)
AE leading to death [14]: 0
AE leading to study discontinuation [14]: 0
Any AE leading to study treatment discontinuation [14]: 0
Serious AE [14]: 0
Adverse event: Accidental overdose (BTKi 5 mg (n = 33)): 0%
Adverse event: Alanine aminotransferase increased (BTKi 5 mg (n = 33)): 1 (3%)
Adverse event: Alopecia (BTKi 5 mg (n = 33)): 1 (3%)
Adverse event: Back pain (BTKi 5 mg (n = 33)): 1 (3%)
Adverse event: Gastroenteritis (BTKi 5 mg (n = 33)): 1 (3%)
Adverse event: Headache (BTKi 5 mg (n = 33)): 1 (3%)
Adverse event: Muscle spasticity (BTKi 5 mg (n = 33)): 0%
Adverse event: Nasopharyngitis (BTKi 5 mg (n = 33)): 1 (3%)
Adverse event: Oropharyngeal pain (BTKi 5 mg (n = 33)): 1 (3%)
Adverse event: Peripheral edema (BTKi 5 mg (n = 33)): 2 (6%)
Adverse event: Respiratory tract infection (BTKi 5 mg (n = 33)): 0%
Adverse event: Upper respiratory tract infection (BTKi 5 mg (n = 33)): 2 (6%)
AE leading to death [15]: 0 n (%)
AE leading to study discontinuation [15]: 0 n (%)
Any AE (4 weeks vs. placebo 12 weeks) [15]: 19 (57.6) n (%)
Any AE leading to study treatment discontinuation [15]: 0 n (%)
